# Measurements published in patent US5783178A, “Polymer linked biological agents” (Supratek Pharma. Inc., priority 1994, dated 1998).
# Where two headings read alike, the source gives them in different places.
# Key:
# in vivo = conditions: mouse, ip
# [1] = test system: MCF-7 line of human breast cancer cells; assay: Micellar agent delivery, cytotoxicity against MCF-7; format: cell-based; conditions: MCF7
# Sp2-resistant cell line = assay: Cytotoxicity towards Sp2-resistant cells (XTT); format: cell-based, murine; conditions: Mus musculus, Example 7
# [2] = test system: SKVLB cell line (SK-resistant cells); assay: Cytotoxicity towards SK-resistant cells (XTT); format: cell-based
# MCF-7AU = assay: Micellar agent delivery, cytotoxicity against MCF-7AU; format: cell-based; conditions: Homo sapiens
# [3] = test system: murine myeloma cell line Sp2/0 (Sp2); assay: Cytotoxicity towards Sp2 cells (XTT); format: cell-based; conditions: Mus musculus, Example 7
# [4] = test system: Sp2-resistant myeloma cells; assay: Tumor treatment, Sp2-resistant tumors; format: in vivo, female Balb C mice; conditions: i.v. at MTD
# Sp2 myeloma cell line = assay: Tumor treatment, Sp2 tumors; format: in vivo, female Balb C mice; conditions: i.v. at MTD
# [5] = test system: SKOV3 line of transformed cells (SK cells); assay: Cytotoxicity towards SK cells (XTT); format: cell-based; conditions: Homo sapiens
# [6] = Solution stability in PBS (dissolved daunorubicin monitored by fluorescence); format: physicochemical; conditions: 37°, PBS pH 7.0, 0.2 μM
# Dox-MCF-7 = assay: Micellar agent delivery, cytotoxicity against Dox-MCF-7; format: cell-based; conditions: Homo sapiens
# SK cells = assay: Activity of conjugated TNFα on SK cells (XTT); format: cell-based; conditions: 24 hours
compound,measurement,setting,value
"COc1cccc2c1C(=O)c1c(O)c3c(c(O)c1C2=O)C[C@@](O)(C(C)=O)C[C@@H]3O[C@H]1C[C@H](N)[C@H](O)[C@H](C)O1 [Free daunorubicin, daunorubicin]",LD50 at 336 h,in vivo,7 mg/kg
same,MTD at 336 h,in vivo,5 mg/kg
same,inhibition at 0.016 µg/mL,[1],15%
same,inhibition at 0.08 µg/mL,[1],43%
same,inhibition at 0.4 µg/mL,[1],69%
same,inhibition at 2 µg/mL,[1],91%
same,inhibition at 10 µg/mL,[1],100%
same,inhibition at 50 µg/mL,[1],100%
same,IC50,Sp2-resistant cell line,2.6 µg/mL
same,IC50,"[2]; Example 5, 1 h exposure, 4 days culture, daunorubicin content basis",2.55 µg/mL
same,IC50,"[2]; Example 6, methods of Example 5",45 µg/mL
same,inhibition at 0.016 µg/mL,MCF-7AU,3%
same,inhibition at 0.08 µg/mL,MCF-7AU,9%
same,inhibition at 0.4 µg/mL,MCF-7AU,37%
same,inhibition at 2 µg/mL,MCF-7AU,65%
same,inhibition at 10 µg/mL,MCF-7AU,89%
same,inhibition at 50 µg/mL,MCF-7AU,100%
same,IC50,[3],0.22 µg/mL
same,V/V0,[4]; day 0 after first treatment,1
same,V/V0,[4]; day 3 after first treatment,2.7
same,V/V0,[4]; day 6 after first treatment,3.4
same,V/V0,[4]; day 8 after first treatment,5.1
same,V/V0,[4]; day 10 after first treatment,6.6
same,V/V0,[4]; day 13 after first treatment,11.6
same,V/V0,[4]; day 16 after first treatment,20.9
same,V/V0,[4]; day 20 after first treatment,25.9
same,V/V0,[4]; day 23 after first treatment,38.4
same,V/V0,[4]; day 27 after first treatment,50.9
same,V/V0,[4]; day 31 after first treatment,68.3
same,V/V0,[4]; day 34 after first treatment,73.0
same,V/V0,[4]; day 38 after first treatment,83.4
same,V/V0,[4]; day 42 after first treatment,113.8
same,V/V0,[4]; day 45 after first treatment,111.9
same,V/V0,Sp2 myeloma cell line; day 0 after first treatment,1
same,V/V0,Sp2 myeloma cell line; day 4 after first treatment,1.5
same,V/V0,Sp2 myeloma cell line; day 7 after first treatment,2.4
same,V/V0,Sp2 myeloma cell line; day 12 after first treatment,8.8
same,V/V0,Sp2 myeloma cell line; day 14 after first treatment,10.9
same,V/V0,Sp2 myeloma cell line; day 17 after first treatment,16.8
same,V/V0,Sp2 myeloma cell line; day 21 after first treatment,17.5
same,V/V0,Sp2 myeloma cell line; day 25 after first treatment,16.1
same,V/V0,Sp2 myeloma cell line; day 28 after first treatment,15.8
same,V/V0,Sp2 myeloma cell line; day 32 after first treatment,15.9
same,V/V0,Sp2 myeloma cell line; day 35 after first treatment,15.7
same,IC50,"[5]; SK-OV-3, Example 5, 1 h exposure, 4 days culture, daunorubicin content basis, read-out: IC50",0.32 µg/mL
same,IC50,"[5]; SK-OV-3, Example 6, methods of Example 5",5.2 µg/mL
same,I585 (% of initial),[6]; 0 hours incubation,100 % of initial
same,"remaining at 6 h, 0.2 µM","[6]; 6 hours incubation, read-out: I585 (% of initial)",92%
same,"remaining at 27 h, 0.2 µM","[6]; 27 hours incubation, read-out: I585 (% of initial)",89%
same,"remaining at 43 h, 0.2 µM","[6]; 43 hours incubation, read-out: I585 (% of initial)",68%
same,"remaining at 78 h, 0.2 µM","[6]; 78 hours incubation, read-out: I585 (% of initial)",54%
same,"remaining at 120 h, 0.2 µM","[6]; 120 hours incubation, read-out: I585 (% of initial)",37%
same,inhibition at 0.016 µg/mL,Dox-MCF-7,2%
same,inhibition at 0.08 µg/mL,Dox-MCF-7,7%
same,inhibition at 0.4 µg/mL,Dox-MCF-7,39%
same,inhibition at 2 µg/mL,Dox-MCF-7,62%
same,inhibition at 10 µg/mL,Dox-MCF-7,86%
same,inhibition at 50 µg/mL,Dox-MCF-7,100%
human tumor necrosis factorα [TNFα],"Inhibition, % (± SD)",SK cells; TNFα concentration 0.01 (unit not given),0%
same,"Inhibition, % (± SD)",SK cells; TNFα concentration 0.05 (unit not given),2 (± 2) %
same,"Inhibition, % (± SD)",SK cells; TNFα concentration 0.2 (unit not given),5 (± 3) %
same,"Inhibition, % (± SD)",SK cells; TNFα concentration 1.0 (unit not given),4 (± 4) %
same,"Inhibition, % (± SD)",SK cells; TNFα concentration 5 (unit not given),10 (± 5) %
same,"Inhibition, % (± SD)",SK cells; TNFα concentration 20 (unit not given),22 (± 5) %
same,"Inhibition, % (± SD)",SK cells; TNFα concentration 50 (unit not given),35 (± 7) %
same,"Inhibition, % (± SD)",SK cells; TNFα concentration 100 (unit not given),44 (± 6) %
same,"Inhibition, % (± SD)",SK cells; TNFα concentration 200 (unit not given),80 (± 14) %
